Measurements reported in US20120283335A1, “Analogs of Propofol, Preparation Thereof and Use as Anesthetics” (priority 2008, published 2012).
Entries after “also recorded” stand apart in the source; their conditions may differ.

What was measured:
pig = assay: Test B. Anesthetized Pig Model (hemodynamic profile); assay type: in vivo; conditions: 20 minute intravenous infusion, data in FIGS. 1 and 2
Procedure: The hemodynamic profile of a compound of the invention can be determined using standard pharmacological models that are well known to the art. The hemodynamic and anesthetic profiles of a compound of the invention can be evaluated simultaneously using an anesthetized pig model (as described in Test B below).
The anesthetic induction was performed using a modification of a technique described by Ko et al (Ko et al., Lab Anim Sci 1993; 43: 476-80) for swine (Telazol, xylazine and ketamine given as an intramuscular injection). The minimal effective dose for induction and tracheal intubation was used. […]
A compound of the invention or propofol was administered intravenously by a 20 minute infusion after the stabilization period through the peripheral IV catheter. […] Blood samples (1 mL each) were collected at pre-dose and at 2, 4, 6, 8, 10, 12, 15, 20, 22, […], 25, 35, 50, 65 and 80 minutes after the start of the first infusion for pharmacokinetic purposes; EEG were recorded continuously as the primary pharmacodynamic endpoint. […]
The EEG signal was fed to a BIS analyzer (Aspect Medical) which provided continuous output of processed EEG data. The output consisted of a “BIS” number calculated by a proprietary algorithm that ranges between 100 (fully conscious) and 0 (isoelectric) and indicated brain activity.
Hemodynamic data were recorded and plotted to assess trends over the drug exposure period. […]

Male Sprague Dawley rats = assay: Test A. Loss of Righting Reflex Assay with dose escalation to maximum tolerated dose; assay type: in vivo; conditions: rat; for Safety compared with propofol: doses escalated; for Potency compared with propofol: equal dose (7 mg/kg), 7 mg/kg
Text: The ability of a compound of the invention to produce an anesthetic effect (i.e. efficacy) can be determined using standard pharmacological models that are well known to the art. […] The potency of such a compound was compared to the potency of propofol using this assay.
The safety of a compound of the invention can be determined using standard pharmacological models that are well known to the art. […] The safety of such a compound was compared to that of propofol using this assay.
Male Sprague Dawley rats were restrained in a holder, and test compound or propofol was injected in the tail vein (based on milligrams (mg) compound per kilogram (kg) body weight). Following administration, the rats were placed in a dorsal recumbent position on a heating blanket. The time to onset for the loss of the Righting Reflex (RR-ability of rat to right itself) was recorded, as was the duration of the loss of the RR. Doses were escalated until the maximum tolerated doses were achieved.

| Structure (SMILES) | Hemodynamic properties compared with propofol (pig) | Safety compared with propofol (Male Sprague Dawley rats) | Potency compared with propofol (Male Sprague Dawley rats) | Potency compared with propofol (Male Sprague Dawley rats; listed as 2-(1-Ethylpropyl)-6-isopropylphenol) | Outcome: deaths (Male Sprague Dawley rats; tail vein bolus dose 7 mg/kg) | Outcome: minutes of sleep post bolus dose (Male Sprague Dawley rats; tail vein bolus dose 7 mg/kg) | Outcome: deaths (Male Sprague Dawley rats; tail vein bolus dose 14 mg/kg) | Outcome: deaths (Male Sprague Dawley rats; tail vein bolus dose 21 mg/kg) |
| --- | --- | --- | --- | --- | --- | --- | --- | --- |
| CCC(CC)c1cccc(C(C)C)c1O [2-(1-ethylpropyl)-6-isopropylphenol] | improved hemodynamic properties | greater safety compared to propofol; also recorded: improved safety | at least equivalent potency | at least equivalent, if not greater, potency than propofol | 0/6 deaths | 9.9 minutes of sleep post | 0/6 deaths | 0/6 deaths |
| CC(C)c1cccc(C(C)C)c1O [Propofol, 2,6-diisopropylphenol] | – | – | – | – | 0/10 deaths | 7.1 minutes of sleep post | 6/10 deaths | 4/6 deaths |
| CC(C)c1cccc(C(C)C(C)C)c1O (racemic) [2-(3-methyl)secbutyl-6-isopropylphenol] | – | greater safety compared to propofol; also recorded: improved safety | at least equivalent, if not greater potency than propofol; also recorded: at least equivalent potency | – | 0/6 deaths | 7.5 minutes of sleep post | 0/6 deaths | 0/6 deaths |
